Target: ATP-dependent translocase ABCB1 (Homo sapiens, UniProt P08183)
Assay: TP_TRANSPORTER: increase in Calcein intracellular accumulation (Calcein: 50 mg/L, Carvedilol: 10 uM) in Hs578T-Dox cells
Format: functional, cell-based

Chain of ATP-dependent translocase ABCB1 (P08183 whole entry): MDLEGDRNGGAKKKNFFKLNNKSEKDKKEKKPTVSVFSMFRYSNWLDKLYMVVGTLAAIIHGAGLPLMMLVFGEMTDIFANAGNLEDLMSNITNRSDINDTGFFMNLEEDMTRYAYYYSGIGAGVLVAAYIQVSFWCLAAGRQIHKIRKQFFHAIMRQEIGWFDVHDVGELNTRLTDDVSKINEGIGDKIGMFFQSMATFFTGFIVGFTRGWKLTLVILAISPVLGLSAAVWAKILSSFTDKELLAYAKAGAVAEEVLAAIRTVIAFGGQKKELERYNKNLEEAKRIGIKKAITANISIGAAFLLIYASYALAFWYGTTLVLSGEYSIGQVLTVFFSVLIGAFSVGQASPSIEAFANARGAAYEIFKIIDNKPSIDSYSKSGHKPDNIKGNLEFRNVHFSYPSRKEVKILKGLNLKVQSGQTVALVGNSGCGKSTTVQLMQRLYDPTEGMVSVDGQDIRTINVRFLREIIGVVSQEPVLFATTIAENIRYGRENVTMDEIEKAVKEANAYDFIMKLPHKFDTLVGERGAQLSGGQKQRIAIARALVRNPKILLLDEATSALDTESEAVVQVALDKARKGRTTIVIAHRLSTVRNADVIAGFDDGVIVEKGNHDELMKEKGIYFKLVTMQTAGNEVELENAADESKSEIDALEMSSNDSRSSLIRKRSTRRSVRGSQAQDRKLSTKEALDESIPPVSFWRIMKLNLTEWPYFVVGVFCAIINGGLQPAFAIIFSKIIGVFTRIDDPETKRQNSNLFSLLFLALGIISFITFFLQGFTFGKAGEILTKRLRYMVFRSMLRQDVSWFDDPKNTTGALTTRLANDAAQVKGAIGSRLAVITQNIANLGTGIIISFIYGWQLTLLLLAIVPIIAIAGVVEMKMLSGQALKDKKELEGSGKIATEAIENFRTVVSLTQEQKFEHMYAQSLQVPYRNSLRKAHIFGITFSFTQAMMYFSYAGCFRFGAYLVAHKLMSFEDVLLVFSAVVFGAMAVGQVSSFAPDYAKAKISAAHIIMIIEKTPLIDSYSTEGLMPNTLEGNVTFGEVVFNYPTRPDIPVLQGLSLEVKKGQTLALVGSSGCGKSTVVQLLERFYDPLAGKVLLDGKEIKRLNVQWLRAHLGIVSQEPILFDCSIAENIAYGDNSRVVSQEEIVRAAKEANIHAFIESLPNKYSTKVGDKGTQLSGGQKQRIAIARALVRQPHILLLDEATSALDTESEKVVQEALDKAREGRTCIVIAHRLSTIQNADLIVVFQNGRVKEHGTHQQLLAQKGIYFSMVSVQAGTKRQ

Structure (SMILES): COc1ccccc1OCCNCC(O)COc1cccc2[nH]c3ccccc3c12 (stereo unspecified) [CARVEDILOL]
- Activity: inhibitor [+]

Reference: ChEMBL document CHEMBL2073985, “Increase in doxorubicin cytotoxicity by carvedilol inhibition of P-glycoprotein activity” (Biochem Pharmacol, 1999)
